Measurements: US20090221829A1 (priority 2005, published 2009)
Values after ≈ are worked out from the molar mass of the structure shown. Where a name gives a salt, the structure may show the parent alone. Values belong to the compound of their own block, whether it stands above or below them.

Experiments:
[1] = system: various kinds of Candida; assay: MIC (Minimal Inhibitory Concentration) data; type: cell-based; details: unit assumed
[2] = system: Candida albicans(KCTC 1940), Aspergillus niger (ATCC 9642) and Saccharomyces cerevisiae; assay: Relative antifungal activity by agar dilution method (vs Miconazole); type: cell-based;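 note: scores 5 to 7 mean a lower fungicidal concentration than Miconazole so higher is more potent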
Source text: Novel compounds represented by the above chemical formula (I), and the relative activities in accordance with the agar dilution method in Sabouraud dextrose agar media, Czapek agar media and Yeast Extract-Peptone-Dextrose agar media for Candida albicans(KCTC 1940), Aspergillus niger (ATCC 9642) and Saccharomyces cerevisiae are described respectively in following Table 1.

[3] = agar dilution method, fungicidal concentration relative to control drug Miconazole (=4)
[4] = antifungal activity relative to Miconazole, agar dilution

Structure (SMILES): COc1cc2c(cc1OC)C(CCc1ccc(C(C)(C)C)cc1)=[N+](Cc1cccc(OC)c1OCc1c(F)c(F)c(C(F)(F)F)c(F)c1F)CC2 [Compound No. 135, 1-(2-(4-t-butylphenyl))ethyl-2-(2-(2,3,5,6-tetrafluoro-4-trifluoromethylbenzyloxy)-3-methoxyphenyl)methyl-3,4-dihydro-6,7-dimethoxy isoquinolinium chloride]
MIC ([1]; C. albicans ATCC 11651): 6.25 µg/mL
MIC ([1]; C. albicans ATCC 28838): 3.12 µg/mL
MIC ([1]; C. albicans IFO 1385): 6.25 µg/mL
MIC ([1]; C. albicans OY-003): 3.12 µg/mL
MIC ([1]; C. albicans OY-019): 6.25 µg/mL
MIC ([1]; C. albicans U.K): 6.25 µg/mL
MIC ([1]; C. glabrata): 12.5 µg/mL
MIC ([1]; C. glulliermondi): 3.12 µg/mL
MIC ([1]; C. krusei (KCTC7273)): 1.56 µg/mL
MIC ([1]; C. parapsilosis): 12.5 µg/mL
Relative Activity [2, 3]: 2

melting point: 63 °C
Structure (SMILES): COc1cc2c(cc1OC)C(CCc1ccc(C(C)(C)C)cc1)=[N+](Cc1cccc(OC)c1OCc1c(F)cccc1Cl)CC2 (as salt: chloride) [Compound No. 133, 1-(2-(4-t-butylphenyl))ethyl-2-(2-(2-chloro-6-fluorobenzyloxy)-3-methoxyphenyl)methyl-3,4-dihydro-6,7-dimethoxyisoquinolinium chloride]

melting point: 114 °C
Structure (SMILES): CC(C)C1=[N+](Cc2ccccc2F)CCc2cc3c(cc21)OCO3.[Cl-]

Structure (SMILES): COc1cc2c(cc1OC)C(CCc1ccc(C(C)(C)C)cc1)=[N+](Cc1cccc(OC)c1OCc1ccc(C(F)(F)F)cc1)CC2 [Compound No. 132, 1-(2-(4-t-butylphenyl))ethyl-2-(2-(4-trifluoromethylbenzyloxy)-3-methoxyphenyl)methyl-3,4-dihydro-6,7-dimethoxy isoquinolinium chloride]
MIC ([1]; C. albicans ATCC 11651): 3.12 µg/mL
MIC ([1]; C. albicans ATCC 28838): 1.56 µg/mL
MIC ([1]; C. albicans IFO 1385): 6.25 µg/mL
MIC ([1]; C. albicans OY-003): 3.12 µg/mL
MIC ([1]; C. albicans OY-019): 3.12 µg/mL
MIC ([1]; C. albicans U.K): 1.56 µg/mL
MIC ([1]; C. glabrata): 12.5 µg/mL
MIC ([1]; C. glulliermondi): 3.12 µg/mL
MIC ([1]; C. krusei (KCTC7273)): 1.56 µg/mL
MIC ([1]; C. parapsilosis): 6.5 µg/mL
Relative Activity [2, 3]: 1

Structure (SMILES): COc1cc2cc[n+](Cc3cccc(OC)c3OCc3ccc(C(F)(F)F)cc3)c(CCc3ccc(C(C)(C)C)cc3)c2cc1OC [Compound No. 149, 1-(2-(4-t-butylphenyl))ethyl-2-(2-(4-trifluoromethylbenzyloxy)-3-methoxyphenyl)methyl-6,7-dimethoxyisoquinolinium chloride]
MIC ([1]; C. albicans ATCC 11651): 0.78 µg/mL
MIC ([1]; C. albicans ATCC 28838): 1.56 µg/mL
MIC ([1]; C. albicans IFO 1385): 3.12 µg/mL
MIC ([1]; C. albicans OY-003): 0.78 µg/mL
MIC ([1]; C. albicans OY-019): 1.56 µg/mL
MIC ([1]; C. albicans U.K): 0.78 µg/mL
MIC ([1]; C. albicnas ATCC 10231): 0.78 µg/mL
MIC ([1]; C. glabrata): 6.25 µg/mL
MIC ([1]; C. glulliermondi): 1.56 µg/mL
MIC ([1]; C. krusei (KCTC7273)): 1.56 µg/mL
MIC ([1]; C. parapsilosis): 6.25 µg/mL
Relative Activity [2, 4]: 1

Structure (SMILES): COc1cc2c(cc1OC)C(CCc1ccc(C(C)(C)C)cc1)=[N+](Cc1cccc(OC)c1OCc1c(F)c(F)c(C(F)(F)F)c(F)c1F)CC2 (as salt: chloride) [Compound No. 135, 1-(2-(4-t-butylphenyl))ethyl-2-(2-(2,3,5,6-tetrafluoro-4-trifluoromethylbenzyloxy)-3-methoxyphenyl)methyl-3,4-dihydro-6,7-dimethoxy isoquinolinium chloride]
melting point: 140 °C

Structure (SMILES): COc1cc2c(cc1OC)C(CCc1ccc(C(C)(C)C)cc1)=[N+](Cc1cccc(OC)c1OCc1ccc(C(F)(F)F)cc1)CC2 (as salt: chloride) [Compound No. 132, 1-(2-(4-t-butylphenyl))ethyl-2-(2-(4-trifluoromethylbenzyloxy)-3-methoxyphenyl)methyl-3,4-dihydro-6,7-dimethoxy isoquinolinium chloride]
melting point: 60 °C

melting point: 103 °C
Structure (SMILES): COc1cc2c(cc1OC)C(CCc1ccc(C(C)(C)C)cc1)=[N+](Cc1ccccc1F)CC2 (as salt: chloride) [Compound No. 124, 1-(2-(4-t-butylphenyl))ethyl-2-(2-fluorophenyl)methyl-3,4-dihydro-6,7-dimethoxyisoquinolinium chloride]

Structure (SMILES): COc1cc2cc[n+](Cc3cccc(OC)c3OCc3ccc(C(F)(F)F)cc3)c(CCc3ccc(C(C)(C)C)cc3)c2cc1OC (as salt: chloride) [Compound No. 149, 1-(2-(4-t-butylphenyl))ethyl-2-(2-(4-trifluoromethylbenzyloxy)-3-methoxyphenyl)methyl-6,7-dimethoxyisoquinolinium chloride]
melting point: 110 °C

melting point: 94 °C
Structure (SMILES): CCCCCCCC1=[N+](Cc2ccccc2F)CCc2cc3c(cc21)OCO3.[Cl-]

melting point: 100 °C
Structure (SMILES): COc1ccc(C[N+]2=C(CCc3ccc(C(C)(C)C)cc3)c3cc(OC)c(OC)cc3CC2)cc1OC (as salt: chloride) [Compound No. 125, 1-(2-(4-t-butylphenyl))ethyl-2-(3,4-dimethoxyphenyl)methyl-3,4-dihydro-6,7-dimethoxyisoquinolinium chloride]

Structure (SMILES): C[C@@H]1[C@H](O)[C@@H](C)/C=C/C=C/C=C/C=C/C=C/C=C/C=C/[C@H](O[C@@H]2O[C@H](C)[C@@H](O)[C@H](N)[C@@H]2O)C[C@@H]2O[C@](O)(C[C@@H](O)C[C@@H](O)[C@H](O)CC[C@@H](O)C[C@@H](O)CC(=O)O[C@H]1C)C[C@H](O)[C@H]2C(=O)O [Amphotericin B, reference compound]
MIC ([1]; C. albicans ATCC 11651): 1.56 µg/mL (≈ 1.69 µM)
MIC ([1]; C. albicans ATCC 28838): 3.12 µg/mL (≈ 3.38 µM)
MIC ([1]; C. albicans IFO 1385): 1.56 µg/mL (≈ 1.69 µM)
MIC ([1]; C. albicans OY-003): 0.78 µg/mL (≈ 0.844 µM)
MIC ([1]; C. albicans OY-019): 0.4 µg/mL (≈ 0.433 µM)
MIC ([1]; C. albicans U.K): 3.12 µg/mL (≈ 3.38 µM)
MIC ([1]; C. albicnas ATCC 10231): 1.56 µg/mL (≈ 1.69 µM)
MIC ([1]; C. glabrata): 1.56 µg/mL (≈ 1.69 µM)
MIC ([1]; C. glulliermondi): 1.56 µg/mL (≈ 1.69 µM)
MIC ([1]; C. krusei (KCTC7273)): 0.78 µg/mL (≈ 0.844 µM)
MIC ([1]; C. parapsilosis): 3.12 µg/mL (≈ 3.38 µM)

Structure (SMILES): CCCCc1ccc(C2=[N+](Cc3ccccc3F)CCc3cc(OC)c(OC)cc32)cc1.[Cl-] [Compound No. 21, 1-(4-n-butylphenyl)-2-(2-fluorophenyl)methyl-3,4-dihydro-6,7-dimethoxyisoquinolinium chloride]
Relative Activity [2, 3]: 6

Structure (SMILES): CCCCCCC1=[N+](Cc2ccccc2Cl)CCc2cc(OC)c(OC)cc21.[Cl-] [Compound No. 51, 1-n-hexyl-2-(2-chlorophenyl)methyl-3,4-dihydro-6,7-dimethoxyisoquinolinium chloride]
Relative Activity [2, 3]: 4

Structure (SMILES): CCCCCCCC1=[N+](Cc2ccccc2Cl)CCc2cc(OC)c(OC)cc21.[Cl-] [Compound No. 52, 1-n-heptyl-2-(2-chlorophenyl)methyl-3,4-dihydro-6,7-dimethoxyisoquinolinium chloride]
Relative Activity [2, 3]: 3

Structure (SMILES): COc1cc2c(cc1OC)C(CCc1ccc(C(C)(C)C)cc1)=[N+](Cc1ccc(C(F)(F)F)cc1)CC2.[Cl-] [Compound No. 129, 1-(2-(4-t-butylphenyl))ethyl-2-(4-trifluoromethylphenyl)methyl-3,4-dihydro-6,7-dimethoxy isoquinolinium chloride]
Relative Activity [2, 3]: 4

Structure (SMILES): COc1cc2cc[n+](Cc3ccc(C(C)(C)C)cc3)cc2cc1OC.[Cl-] [Compound No. 142, 2-(4-t-butylphenyl)methyl-6,7-dimethoxy-isoquinolinium chloride]
Relative Activity [2, 4]: 6

Structure (SMILES): CCCCCCC1=[N+](Cc2ccccc2F)CCc2cc(OC)ccc21.[Cl-] [Compound No. 86, 1-n-hexyl-2-(2-fluorophenyl)methyl-3,4-dihydro-6-methoxyisoquinolinium chloride]
Relative Activity [2, 3]: 5

Structure (SMILES): CCCCCCCCCCCCCCCC1=[N+](Cc2ccccc2Cl)CCc2cc(OC)c(OC)cc21.[Cl-] [Compound No. 54, 1-n-pentadecyl-2-(2-chlorophenyl)methyl-3,4-dihydro-6,7-dimethoxyisoquinolinium chloride]
Relative Activity [2, 3]: 1

Structure (SMILES): COc1cc2c(cc1OC)C(C(C)C)=[N+](Cc1c(F)cccc1Cl)CC2.[Cl-] [Compound No. 65, 1-i-propyl-2-(2-chloro-6-fluorophenyl)methyl-3,4-dihydro-6,7-dimethoxyisoquinolinium chloride]
Relative Activity [2, 3]: 5

Structure (SMILES): CCCCCCC1=[N+](Cc2c(F)cccc2F)CCc2cc(OC)c(OC)cc21.[Cl-] [Compound No. 58, 1-n-hexyl-2-(2,6-difluorophenyl)methyl-3,4-dihydro-6,7-dimethoxyisoquinolinium chloride]
Relative Activity [2, 3]: 4

Structure (SMILES): COc1cc2c(cc1OC)C(C)=[N+](Cc1ccc(C(F)(F)F)cc1)CC2.[Cl-] [Compound No. 26, 1-methyl-2-(4-trifluoromethylphenyl)methyl-3,4-dihydro-6,7-dimethoxyisoquinolinium chloride]
Relative Activity [2, 3]: 6

Structure (SMILES): CCCCCCCCCCCC1=[N+](Cc2ccc(F)c(F)c2)CCc2cc(OC)c(OC)cc21.[Cl-] [Compound No. 44, 1-n-undecyl-2-(3,4-difluorophenyl)methyl-3,4-dihydro-6,7-dimethoxyisoquinolinium chloride]
Relative Activity [2, 3]: 1

Structure (SMILES): CCCCCCCC1=[N+](Cc2c(F)cccc2Cl)CCc2cc(OC)c(OC)cc21.[Cl-] [Compound No. 67, 1-n-heptyl-2-(2-chloro-6-fluorophenyl)methyl-3,4-dihydro-6,7-dimethoxyisoquinolinium chloride]
Relative Activity [2, 3]: 4

Structure (SMILES): COc1cc2c(cc1OC)C(c1ccc(C(C)(C)C)cc1)=[N+](Cc1ccccc1[N+](=O)[O-])CC2.[Cl-] [Compound No. 75, 1-(4-t-butylphenyl)-2-(2-nitrophenyl)methyl-3,4-dihydro-6,7-dimethoxyisoquinolinium chloride]
Relative Activity [2, 3]: 6

Structure (SMILES): CCCCCC1=[N+](Cc2ccc(F)c(F)c2)CCc2cc(OC)c(OC)cc21.[Cl-] [Compound No. 41, 1-n-pentyl-2-(3,4-difluorophenyl)methyl-3,4-dihydro-6,7-dimethoxyisoquinolinium chloride]
Relative Activity [2, 3]: 6

Structure (SMILES): CCCC1=[N+](Cc2ccccc2F)CCc2cc(OC)ccc21.[Cl-] [Compound No. 82, 1-n-propyl-2-(2-fluorophenyl)methyl-3,4-dihydro-6-methoxyisoquinolinium chloride]
Relative Activity [2, 3]: 6

Structure (SMILES): CCC1=[N+](Cc2ccccc2F)CCc2cc(OC)ccc21.[Cl-] [Compound No. 81, 1-ethyl-2-(2-fluorophenyl)methyl-3,4-dihydro-6-methoxyisoquinolinium chloride]
Relative Activity [2, 3]: 6
